Measurements published in patent US10519134B2, “Pyrazole compounds and methods of making and using same” (Lundbeck La Jolla Research Center, Inc., priority 2015, dated 2019).

Columns and labels:
MAGL [1] = target: T1, MAGL (Mus musculus, UniProt O35678); test: Mouse brain proteomes from inhibitor treated mice (oral gavage, sacrificed 4 h after administration); format: in vivo; settings: read-out: MAGL % inh. 5 mg/kg
T1 construct: Proteomes (mouse brain membrane fraction or cell lysates); from tissue; host or cells: mouse brain membrane fraction (or cell lysates)
T1 sequence (O35678 1-303): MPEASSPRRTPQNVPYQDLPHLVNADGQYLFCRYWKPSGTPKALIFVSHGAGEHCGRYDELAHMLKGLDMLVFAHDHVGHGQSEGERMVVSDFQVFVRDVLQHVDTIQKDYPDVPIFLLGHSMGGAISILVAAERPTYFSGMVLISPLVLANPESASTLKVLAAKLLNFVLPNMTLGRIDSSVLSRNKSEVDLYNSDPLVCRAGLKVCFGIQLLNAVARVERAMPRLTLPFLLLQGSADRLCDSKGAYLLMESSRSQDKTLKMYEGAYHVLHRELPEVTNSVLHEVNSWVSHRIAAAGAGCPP
In short: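 Wild-type C57Bl/6J mice got compound by oral gavage in polyethylene glycol vehicle. Brain proteomes were prepared 4 h after dosing and analyzed for serine hydrolase activity.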

FAAH = target: T2, FAAH (Mus musculus, UniProt O08914); test: In vitro competitive activity-based protein profiling (mouse), FAAH gel band; format: biochemical; settings: for inhibition at 1 µM: read-out: FAAH % inh. 1 μM; for IC50: mouse
T2 construct: Proteomes (mouse brain membrane fraction or cell lysates); from tissue; host or cells: mouse brain membrane fraction (or cell lysates)
T2 sequence (O08914 1-579): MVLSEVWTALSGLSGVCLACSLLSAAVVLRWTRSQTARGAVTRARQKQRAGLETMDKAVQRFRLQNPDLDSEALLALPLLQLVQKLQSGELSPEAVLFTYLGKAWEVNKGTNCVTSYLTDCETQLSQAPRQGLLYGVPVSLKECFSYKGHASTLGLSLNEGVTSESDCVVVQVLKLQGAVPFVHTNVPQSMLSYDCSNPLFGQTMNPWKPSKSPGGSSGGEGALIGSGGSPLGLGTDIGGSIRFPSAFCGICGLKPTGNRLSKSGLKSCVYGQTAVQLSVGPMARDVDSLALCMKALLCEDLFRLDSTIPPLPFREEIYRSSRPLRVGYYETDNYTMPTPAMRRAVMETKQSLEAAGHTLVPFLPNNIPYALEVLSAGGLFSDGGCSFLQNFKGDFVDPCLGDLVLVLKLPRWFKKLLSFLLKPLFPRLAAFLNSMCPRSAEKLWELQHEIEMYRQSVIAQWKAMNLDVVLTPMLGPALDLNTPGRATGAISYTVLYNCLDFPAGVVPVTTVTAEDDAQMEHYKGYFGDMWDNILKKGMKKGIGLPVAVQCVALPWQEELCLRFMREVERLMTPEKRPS
In short: (§1)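 Competitive ABPP: inhibitors at varying concentrations were given 30 min at 37 °C with mouse brain membranes or cell lysates (1.0 mg/mL total protein) before 30 min labelling by FP-Rh or HT-01 (stock 50 μM in DMSO). Residual hydrolase activity read as in-gel fluorescence of MAGL and FAAH bands.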

MAGL [2] = target: T3, MAGL (Homo sapiens, UniProt Q99685); test: In vitro competitive activity-based protein profiling (human), MAGL gel band; format: biochemical
T3 construct: Proteomes (human prefrontal cortex or cell membrane fractions); from tissue; host or cells: human prefrontal cortex (or cell membrane fractions)
T3 sequence (Q99685 1-303): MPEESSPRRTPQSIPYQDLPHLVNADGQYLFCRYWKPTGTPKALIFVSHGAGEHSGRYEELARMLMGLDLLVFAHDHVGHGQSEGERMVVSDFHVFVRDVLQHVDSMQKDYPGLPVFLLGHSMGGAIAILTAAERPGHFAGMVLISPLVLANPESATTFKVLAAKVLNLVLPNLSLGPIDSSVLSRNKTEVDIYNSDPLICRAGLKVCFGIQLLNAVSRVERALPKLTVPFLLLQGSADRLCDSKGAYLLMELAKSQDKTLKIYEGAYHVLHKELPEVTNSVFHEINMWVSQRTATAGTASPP
In short: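 Human prefrontal cortex or cell membrane proteomes (1.0-2.0 mg/mL protein) preincubated with inhibitors 30 min at 37° C, then labelled with FP-Rh or JW912 probe 30 min at room temperature. Residual MAGL activity read as fluorescent gel-band intensity after SDS-PAGE.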

MAGL [3] = target: T1, MAGL; test: In vitro competitive activity-based protein profiling (mouse), MAGL gel band; format: biochemical; settings: for inhibition at 1 µM: read-out: MAGL % inh. 1 μM; for IC50: mouse
In short: as §1

inhibition at 5 mg/kg (MAGL [1])	inhibition at 1 µM (FAAH)	IC50 (MAGL [2])	inhibition at 1 µM (MAGL [3])	IC50 (FAAH)	IC50 (MAGL [3])	SMILES
25 to 50%	0 to 25%	≤ 100 nM	≥ 75%	–	–	CS(=O)(=O)Nc1ccn(C(=O)N2CCN(Cc3ccc(Cl)c(OC4CCOCC4)c3)CC2)n1 [Example 219, N-(1-(4-(4-chloro-3-((tetrahydro-2H-pyran-4-yl)oxy)benzyl)piperazine-1-carbonyl)-1H-pyrazol-3-yl) methanesulfonamide]
≥ 75%	0 to 25%	≤ 100 nM	≥ 75%	1 to 10 µM	≤ 100 nM	CS(=O)(=O)Nc1ccn(C(=O)N2CCN(Cc3ccc(C(F)(F)F)cc3N3CCCC3)CC2)n1 [Example 188, N-(1-(4-(2-(pyrrolidin-1-yl)-4-(trifluoromethyl)benzyl)piperazine-1-carbonyl)-1H-pyrazol-3-yl) methanesulfonamide]
≥ 75%	0 to 25%	≤ 100 nM	≥ 75%	–	–	CS(=O)(=O)Nc1ccn(C(=O)N2CCN(Cc3ccc(C(F)(F)F)cc3N3CCC3)CC2)n1 [Example 175, N-(1-(4-(2-(azetidin-1-yl)-4-(trifluoromethyl)benzyl)piperazine-1-carbonyl)-1H-pyrazol-3-yl) methanesulfonamide]
0 to 25%	0 to 25%	≤ 100 nM	≥ 75%	–	–	CC(=O)N1CCC2(CC1)CN(c1cc(C(F)(F)F)ccc1CN1CCN(C(=O)n3ccc(NS(C)(=O)=O)n3)CC1)C2 [Example 229, N-(1-(4-(2-(7-acetyl-2,7-diazaspiro[3.5]nonan-2-yl)-4-(trifluoromethyl)benzyl)piperazine-1-carbonyl)-1H-pyrazol-3-yl) methanesulfonamide]
0 to 25%	0 to 25%	≤ 100 nM	≥ 75%	1 to 10 µM	≤ 100 nM	CS(=O)(=O)Nc1ccn(C(=O)N2CCC3(CCCN3Cc3ccc(C(F)(F)F)cc3N3CCCC3)CC2)n1 [Example 125, N-(1-(1-(2-(pyrrolidin-1-yl)-4-(trifluoromethyl)benzyl)-1,8-diazaspiro[4.5]decane-8-carbonyl)-1H-pyrazol-3-yl) methanesulfonamide]
0 to 25%	0 to 25%	≤ 100 nM	≥ 75%	1 to 10 µM	≤ 100 nM	CC(=O)Nc1ccn(C(=O)N2CCN(Cc3ccc(Cl)cc3N3CCN(S(C)(=O)=O)CC3)CC2)n1 [Example 52, N-(1-(4-(4-chloro-2-(4-(methylsulfonyl)piperazin-1-yl)benzyl)piperazine-1-carbonyl)-1H-pyrazol-3-yl)acetamide]
0 to 25%	0 to 25%	≤ 100 nM	≥ 75%	–	–	CS(=O)(=O)Nc1ccn(C(=O)N2CCN(Cc3ccc(Cl)c(-c4nccs4)c3)CC2)n1 [Example 221, N-(1-(4-(4-chloro-3-(thiazol-2-yl)benzyl)piperazine-1-carbonyl)-1H-pyrazol-3-yl) methanesulfonamide]
0 to 25%	0 to 25%	≤ 100 nM	≥ 75%	–	–	CC(=O)Nc1ccn(C(=O)N2CCC3(CCCN3Cc3ccc(Cl)c(C4CC4)c3)CC2)n1 [Example 111, N-(1-(1-(4-chloro-3-cyclopropylbenzyl)-1,8-diazaspiro[4.5]decane-8-carbonyl)-1H-pyrazol-3-yl)acetamide]
–	0 to 25%	≤ 100 nM	≥ 75%	–	–	Cc1cc(CN2CCCC23CCN(C(=O)n2ccc(NC(=O)C(F)F)n2)CC3)ccc1Cl [Example 257, N-(1-(1-(4-chloro-3-methylbenzyl)-1,8-diazaspiro[4.5]decane-8-carbonyl)-1H-pyrazol-3-yl)-2,2-difluoroacetamide]
–	0 to 25%	≤ 100 nM	≥ 75%	–	–	CS(=O)(=O)Nc1ccn(C(=O)N2CCN(Cc3ccc(C(F)(F)F)c(N4CCC(O)CC4)c3)CC2)n1 [Example 289, N-(1-(4-(3-(4-hydroxypiperidin-1-yl)-4-(trifluoromethyl)benzyl)piperazine-1-carbonyl)-1H-pyrazol-3-yl) methanesulfonamide]
–	0 to 25%	≤ 100 nM	≥ 75%	–	–	CS(=O)(=O)Nc1ccn(C(=O)N2CCN(Cc3ccc(C(F)(F)F)cc3N3CCC(C(=O)O)C3)CC2)n1 (stereo not shown) [Example 190, 1-(2-((4-(3-(methylsulfonamido)-1H-pyrazole-1-carbonyl)piperazin-1-yl)methyl)-5-(trifluoromethyl)phenyl) pyrrolidine-3-carboxylic acid]
–	0 to 25%	100 to 1000 nM	≥ 75%	–	–	CC(=O)N1CCC2(CC1)CCN(c1cc(CN3CCN(C(=O)n4ccc(NS(C)(=O)=O)n4)CC3)ccc1Cl)C2 [Example 216, N-(1-(4-(3-(8-acetyl-2,8-diazaspiro[4.5]decan-2-yl)-4-chlorobenzyl)piperazine-1-carbonyl)-1H-pyrazol-3-yl) methanesulfonamide]
–	0 to 25%	≤ 100 nM	≥ 75%	–	–	CN(C)C(=O)C1CCN(c2cc(C(F)(F)F)ccc2CN2CCN(C(=O)n3ccc(NS(C)(=O)=O)n3)CC2)CC1 [Example 231, N,N-dimethyl-1-(2-((4-(3-(methylsulfonamido)-1H-pyrazole-1-carbonyl)piperazin-1-yl)methyl)-5-(trifluoromethyl)phenyl)piperidine-4-carboxamide]
–	0 to 25%	≤ 100 nM	≥ 75%	1 to 10 µM	100 to 1000 nM	CS(=O)(=O)Nc1ccn(C(=O)N2CCN(Cc3cccc(-c4cccnc4)c3)CC2)n1 [Example 120, N-(1-(4-(3-(pyridin-3-yl)benzyl)piperazine-1-carbonyl)-1H-pyrazol-3-yl) methanesulfonamide]
–	0 to 25%	≤ 100 nM	≥ 75%	–	–	CS(=O)(=O)Nc1ccn(C(=O)N2CCN(Cc3ccc(C(F)(F)F)cc3N3CCC4(CCN(S(C)(=O)=O)CC4)C3)CC2)n1 [Example 235, N-(1-(4-(2-(8-(methylsulfonyl)-2,8-diazaspiro[4.5]decan-2-yl)-4-(trifluoromethyl)benzyl)piperazine-1-carbonyl)-1H-pyrazol-3-yl) methanesulfonamide]
–	0 to 25%	≤ 100 nM	≥ 75%	–	–	CC1CCCN1c1cc(CN2CCN(C(=O)n3ccc(NS(C)(=O)=O)n3)CC2)cc(C(F)(F)F)c1 (stereo not shown) [Example 191, N-(1-(4-(3-(2-methylpyrrolidin-1-yl)-5-(trifluoromethyl)benzyl)piperazine-1-carbonyl)-1H-pyrazol-3-yl) methanesulfonamide]

SMILES	inhibition at 5 mg/kg (MAGL [1])	inhibition at 1 µM (FAAH)	IC50 (MAGL [2])	inhibition at 1 µM (MAGL [3])	IC50 (FAAH)	IC50 (MAGL [3])
CS(=O)(=O)Nc1ccn(C(=O)N2CCN(Cc3ccc(Cl)c(N4C5CCC4COC5)c3)CC2)n1 [Example 204, N-(1-(4-(3-(3-oxa-8-azabicyclo[3.2.1]octan-8-yl)-4-chlorobenzyl)piperazine-1-carbonyl)-1H-pyrazol-3-yl) methanesulfonamide]	0 to 25%	0 to 25%	≤ 100 nM	≥ 75%	1 to 10 µM	100 to 1000 nM
